Values quoted from earlier work, collected in patent US6469022B1, “Method, compositions and kits for increasing the oral bioavailability of pharmaceutical agents” (Smith Kline Beecham, Corporation, priority 1997, dated 2002).
Entries after “also recorded” stand apart in the source; their conditions may differ.

Columns and labels:
[1] = target: P-glycoprotein (Homo sapiens, UniProt P08183)
[2] = in vivo
[3] = WO97/15269, Broder et al
[4] = system: tubulin
[5] = system: metastatic breast cancer; settings: taxane-failure patients with metastatic breast cancer; continuous 96-hour infusion every three weeks
[6] = system: tumour; settings: up to 160 mg/kg/day, Stuffness et al.
[7] = oral administration
[8] = system: protein isoprenylation

P-glycoprotein, sequence (P08183 whole entry): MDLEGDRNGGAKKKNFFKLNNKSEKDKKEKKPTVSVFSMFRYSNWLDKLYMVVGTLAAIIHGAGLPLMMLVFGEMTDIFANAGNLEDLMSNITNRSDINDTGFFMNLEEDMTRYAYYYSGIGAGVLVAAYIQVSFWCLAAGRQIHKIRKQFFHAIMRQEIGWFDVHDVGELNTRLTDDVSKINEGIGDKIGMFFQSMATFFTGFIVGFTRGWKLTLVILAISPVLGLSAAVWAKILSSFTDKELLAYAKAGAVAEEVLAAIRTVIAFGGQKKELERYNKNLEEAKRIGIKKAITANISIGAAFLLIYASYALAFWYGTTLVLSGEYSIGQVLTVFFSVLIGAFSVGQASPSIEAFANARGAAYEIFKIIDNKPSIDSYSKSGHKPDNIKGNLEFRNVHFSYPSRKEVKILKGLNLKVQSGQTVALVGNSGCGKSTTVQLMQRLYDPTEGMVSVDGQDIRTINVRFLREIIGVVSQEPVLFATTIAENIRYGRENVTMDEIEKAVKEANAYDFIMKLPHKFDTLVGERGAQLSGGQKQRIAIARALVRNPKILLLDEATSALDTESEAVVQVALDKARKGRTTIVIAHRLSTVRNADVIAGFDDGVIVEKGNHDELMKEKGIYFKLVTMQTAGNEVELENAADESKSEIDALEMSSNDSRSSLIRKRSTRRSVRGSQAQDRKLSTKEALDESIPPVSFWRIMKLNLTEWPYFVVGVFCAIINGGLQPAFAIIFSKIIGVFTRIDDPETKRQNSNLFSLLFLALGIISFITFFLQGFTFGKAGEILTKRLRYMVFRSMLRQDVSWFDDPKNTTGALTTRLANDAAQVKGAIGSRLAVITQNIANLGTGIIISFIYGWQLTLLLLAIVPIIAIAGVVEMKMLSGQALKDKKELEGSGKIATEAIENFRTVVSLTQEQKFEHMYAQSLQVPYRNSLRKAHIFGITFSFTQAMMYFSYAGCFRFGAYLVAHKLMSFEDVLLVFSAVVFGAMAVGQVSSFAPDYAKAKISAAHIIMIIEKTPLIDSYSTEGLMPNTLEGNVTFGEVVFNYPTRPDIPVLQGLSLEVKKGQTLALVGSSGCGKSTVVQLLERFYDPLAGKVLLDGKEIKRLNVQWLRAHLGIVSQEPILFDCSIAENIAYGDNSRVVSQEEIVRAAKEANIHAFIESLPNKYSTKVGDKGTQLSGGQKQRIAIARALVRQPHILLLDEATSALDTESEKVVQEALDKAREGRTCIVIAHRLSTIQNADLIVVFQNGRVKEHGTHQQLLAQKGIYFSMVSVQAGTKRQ

## COc1cc2c(cc1OC)CN(CCc1ccc(NC(=O)c3cccc4c(=O)c5cccc(OC)c5[nH]c34)cc1)CC2 [GF120918, 9,10-dihydro-5-methoxy-9oxo-N-[4-[2-(1,2,3,4-tetrahydro-6,7,-dimethoxy-2-isoquinolinyl)ethyl]phenyl]-4-acridinecarboxamide]
[1]
  P-glycoprotein inhibition: P-glycoprotein inhibitor
[2]
  bioavailability across the gut: very poor bioavailability

## CC(=O)[C@H]1CC[C@H]2[C@@H]3CCC4=CC(=O)CC[C@]4(C)[C@H]3CC[C@]12C [progesterone]
[3]
  oral bioavailability-enhancing activity: none

## CC(=O)N1CCN(c2ccc(OCC3COC(Cn4ccnc4)(c4ccc(Cl)cc4Cl)O3)cc2)CC1 (stereo not shown) [ketoconazole]
[3]
  oral bioavailability-enhancing activity: significant

## CC(=O)O[C@H]1C(=O)[C@@]2(C)[C@H]([C@H](OC(=O)c3ccccc3)[C@]3(O)C[C@H](OC(=O)[C@H](O)[C@@H](NC(=O)c4ccccc4)c4ccccc4)C(C)=C1C3(C)C)[C@]1(OC(C)=O)CO[C@@H]1C[C@@H]2O [paclitaxel, 5β,20-epoxy-1,2α,4,7β,10β,13α-hexa-hydroxytax-11-en-9-one 4,10-diacetate 2-benzoate 13-ester with (2R,3S)-N-benzoyl-3-phenylisoserine]
[4]
  level at which inhibition of tubulin disassembly occurs: about 0.1 μM; also recorded: about 85 ng/ml
[5]
  response rate: 27%
[6]
  antitumour activity on oral administration: no evidence of antitumour activity
[7]
  absorbed when administered orally: less than 1%
[8]
  level at which inhibition of protein isoprenylation occurs: about 0.03 μM; also recorded: about 25 ng/ml

## OCCN(CCO)c1nc(N2CCCCC2)c2nc(N(CCO)CCO)nc(N3CCCCC3)c2n1 [dipyridamole]
[3]
  oral bioavailability-enhancing activity: less enhancing activity
